The text below walks through data of paper PMC5324103 (Scientific Reports, 2017).

In series [1] the target is T1, LXRα (Homo sapiens, UniProt Q13133).
T1 construct: expressed in transfected cells; host or cells: HepG2
T1 sequence (Q13133 209-447 limits assumed): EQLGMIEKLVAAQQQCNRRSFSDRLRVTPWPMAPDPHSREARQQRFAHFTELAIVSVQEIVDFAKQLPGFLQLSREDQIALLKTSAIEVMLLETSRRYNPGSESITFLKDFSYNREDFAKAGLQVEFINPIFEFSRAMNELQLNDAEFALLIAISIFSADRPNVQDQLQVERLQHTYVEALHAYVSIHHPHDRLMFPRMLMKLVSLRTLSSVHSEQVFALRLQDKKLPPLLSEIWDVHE
The series is described as follows: LXRα transactivation, luciferase reporter assay in HepG2 cells. The format is cell-based. To be noted: for EC50: dose-response 1-50 μM, mean ± SE, read-out: LXRα Affinity (EC50); for Emax at 10 µM: compound 10 μM vs GW3965 10 μM (=100%), NA = no activity at 10 μM, read-out: LXRα Efficacy (% vs GW3965). On the procedure:
Derivatives 4–30 were tested for their activity in a luciferase reporter assay with HepG2 and HEK-293T cells transfected with LXRα,β and GPBAR1, respectively. Table 1 reports the efficacy of tested compounds compared to those of reference compounds, GW3965 for LXRα/β and TLCA for GPBAR1.
Each compound was tested at the concentration of 10 μM and transactivation activity of GW3965 on LXRs and TLCA on CRE (i.e. TGR5/GPBAR1) was considered equal to 100%.
To evaluate LXRα mediated transactivation, HepG2 cells were transfected with 20 ng of the reporter vector p(UAS)5XTKLuc, 100 ng of a vector containing the ligand binding domain of LXRα cloned upstream of the GAL4-DNA binding domain (i.e. pSG5-LXRαLBD-GAL4DBD) and […] pGL4.70 (Promega), a vector encoding the human Renilla gene. To evaluate GPBAR1 mediated transactivation, HEK-293T cells were transfected with 200 ng of human pGL4.29 (Promega), a reporter vector containing a cAMP response element (CRE) that drives the transcription of the luciferase reporter gene luc2P, with 100 ng of pCMVSPORT6-human GPBAR1, and with 100 ng of pGL4.70 Renilla. To evaluate FXR mediated transactivation, HepG2 cells were transfected with 100 ng of human pSG5-FXR, 100 ng of human pSG5-RXR, 200 ng of the reporter vector p(hsp27)-TK-LUC containing the FXR response element IR1 cloned from the promoter of heat shock protein 27 (hsp27) and with 100 ng of pGL4.70 Renilla. At 24 h post-transfection, cells were stimulated 18 h with 10 μM GW3965, TLCA, or CDCA and compounds 4–30 (10 μM). Luciferase activities were assayed and normalized with Renilla activities. Dose-response curves were performed in HepG2 and HEK-293T cells transfected as described above and then treated with increasing concentrations of compounds 4, 5, 8, 9, 12–15, 17, 20, 21, 24, 25, 27, 29, 30 (1, 5, 10, 25 and 50 μM). At 18 h post stimulations, cellular lysates were assayed for luciferase and Renilla activities using the Dual-Luciferase Reporter assay system (E1980, Promega). Luminescence was measured using Glomax 20/20 luminometer (Promega). Luciferase activities (RLU) were normalized with Renilla activities (RRU).
On the technique in general: A reporter such as luciferase makes a cellular process visible.

Series [2] deals with T2, GPBAR1 (Homo sapiens, UniProt Q8TDU6).
T2 construct: expressed in transfected cells; host or cells: HEK-293T
T2 sequence (Q8TDU6 1-330): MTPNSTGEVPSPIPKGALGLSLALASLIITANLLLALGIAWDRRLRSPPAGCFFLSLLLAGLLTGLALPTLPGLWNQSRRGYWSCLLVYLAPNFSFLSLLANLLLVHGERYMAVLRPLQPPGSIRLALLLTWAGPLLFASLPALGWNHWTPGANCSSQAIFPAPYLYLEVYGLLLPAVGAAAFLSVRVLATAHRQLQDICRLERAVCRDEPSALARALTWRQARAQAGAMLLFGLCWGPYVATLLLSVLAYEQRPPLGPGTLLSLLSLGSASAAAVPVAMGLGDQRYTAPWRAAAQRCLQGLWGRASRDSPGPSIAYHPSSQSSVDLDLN
Description: GPBAR1 transactivation, CRE-luciferase reporter assay in HEK-293T cells. The format is cell-based. To be noted: dose-response 1-50 μM, mean ± SE of 3 experiments in duplicate, read-out: GPBAR1 Affinity (EC50).

The test system of series [3] is ABCA1 mRNA expression. Description: RT-PCR of LXRα target gene ABCA1 in HepG2 cells. To be noted: Homo sapiens, HepG2, 18 h, read-out: EC50 for induction of ABCA1 gene expression.
Description: (§1) HepG2 and Glutag cells were plated at 1 × 10^6 cells/well in a 6 well plate.
(§2) Total RNA was isolated from HepG2 or Glutag cells and from animal tissues (liver and terminal ileum) using the TRIzol reagent according to the manufacturer’s specifications (Invitrogen). One microgram of purified RNA was treated with DNase-I and reverse transcribed with Superscript II (Invitrogen). For Real Time PCR, 25 ng template was dissolved in 25 μL containing 200 nmol/L of each primer and 12.5 μL of 2 × SYBR FAST Universal ready mix (Invitrogen). […] The relative mRNA expression was calculated and expressed as 2^(−ΔΔCt).
Series [4] has as its system C57BL6 mice. Description: Two-week oral administration to intact C57BL6 mice (serum chemistry, liver histology, liver and ileum gene expression). The format is in vivo. To be noted: 30 mg/Kg daily by oral gavage, two weeks. The method, then:
C57BL6 mice were administered with 14 (30 mg/Kg daily by oral gavage) for two weeks.
C57BL6 mice were originally donated by Dr. Galya Vassileva (Schering-Plough Research Institute, Kenilworth). The colonies were maintained in the animal facility of University of Perugia. […] Mice were housed under controlled temperatures (22 °C) and photoperiods (12:12-h light/dark cycle), allowed unrestricted access to standard mouse chow and tap water and allowed to acclimate to these conditions for at least 5 days before inclusion in an experiment. The study was conducted in agreement with the Italian law and the protocol was approved by ethical committee of University of Perugia and by National committee of Ministry of Health (permission n. 42/2014-B). The Veterinarian monitored the health and body conditions of the animals daily in the animal facility. The study protocol caused minor suffering; however, animals that lost more than 25% of the initial body weight were euthanized. At the day of sacrifice mice were deeply anesthetized with a mixture of tiletamine […] and zolazepam […]/xylazine at a dose of 50/5 mg/Kg. Blood, liver and terminal ileum were collected for further analysis. Aspartate aminotransferase (AST), total cholesterol and triglycerides were measured by routine biochemical clinical chemistry. For histological examination, portions of liver lobes were fixed in 10% formalin, embedded in paraffin, sectioned (5 μm thin) and stained with Hematoxylin/Eosin (H&E) for morphometric analysis.

The subject of series [5] is pro-glucagon mRNA expression. The series is described as follows: RT-PCR of GPBAR1 target gene pro-glucagon in Glutag cells. To be noted: Mus musculus, 18 h, read-out: EC50 for induction of pro-glucagon mRNA.
Description: as §1, §2
Series [6] has as its system SREBP1c mRNA expression. Description: RT-PCR of LXRα target gene SREBP1c in HepG2 cells. To be noted: Homo sapiens, HepG2, 18 h, read-out: EC50 for induction of SREBP1c gene expression.
Description: as §1, §2
Series [7] relates to GPBAR1 (also known as TGR5). To be noted: in vitro studies; cited from earlier work.

As to `CC(C)=CCCC(C)C1CCC2C3CC(O)C4CC(O)CCC4(C)C3CCC12C` (stereo not shown) [Compound 4], the EC50 in series [1] worked out at 6.99 ± 0.31 µM. Regarding `CC(C)CCCC(C)C1CCC2C3CC(O)C4CC(O)CCC4(C)C3CCC12C` (stereo not shown) [Compound 5], in series [1], the Emax at 10 µM was 73% and the EC50 turned out to be 8.2 ± 0.16 µM. In the case of `C=CCCC(C)C1CCC2C3CC(O)C4CC(O)CCC4(C)C3CCC12C` (stereo not shown) [Compound 8], in series [1], the half-maximal effective concentration (EC50) was 2.7 ± 0.65 µM. Regarding `CCCCC(C)C1CCC2C3CC(O)C4CC(O)CCC4(C)C3CCC12C` (stereo not shown) [Compound 9], the EC50 in series [1] was 5.1 ± 0.43 µM. For the compound `CC(CCCCc1ccccc1)C1CCC2C3CC(O)C4CC(O)CCC4(C)C3CCC12C` (stereo not shown) [Compound 12], in series [1], the Emax at 10 µM is 63% and the half-maximal effective concentration (EC50) was 12.4 ± 0.41 µM. Consider `CC(C)=CCC(C)C1CCC2C3CC(O)C4CC(O)CCC4(C)C3CCC12C` (stereo not shown) [Compound 13], for which the results for the concentration for a half-maximal effect (EC50) in series [2] and in series [1] were 4.2 ± 0.79 µM and 22.3 ± 3.05 µM, respectively. Take `CC(C)CCC(C)C1CCC2C3CC(O)C4CC(O)CCC4(C)C3CCC12C` (stereo not shown) [Compound 14]: the EC50 is 8.3 µM in series [3]; 4.9 ± 0.2 µM in series [2]; 6.5 µM in series [5]; 5.8 µM in series [6]; 3.2 ± 0.03 µM in series [1]. For the same compound, the “expression of GPBAR1 target genes GLP1 and Fgf21 in terminal ileum” value in series [4] (Real-Time PCR) is listed as “increases”. Further, in series [4] (Real-Time PCR on liver tissue), the “liver expression of steatosis marker genes FAS, SREBP1c, CD36 and PPARs” value is “does not induce”. Also, in series [4] (vs control), the “liver histology (H&E staining), fat deposition” value is listed as “no differences”. Moreover, in series [4] (vs control), the “plasmatic level of AST” value is “no effects”. In addition, the “plasmatic level of cholesterol” value in series [4] (vs control) was “no effects”. The “plasmatic level of triglycerides” value in series [4] (vs control) was “no effects”. Also, the Emax at 10 µM in series [1] stood at 109%. For `C=CCC(C)C1CCC2C3CC(O)C4CC(O)CCC4(C)C3CCC12C` (stereo not shown) [Compound 15], the EC50 in series [2] came to 3.7 ± 0.38 µM.

As to `C=CC(C)C1CCC2C3CC(O)C4CC(O)CCC4(C)C3CCC12C` (stereo not shown) [Compound 17], the EC50 in series [2] was found to be 2.54 ± 0.015 µM. On the same count and under the same terms, for `CCCC[C@@H](C)[C@H]1CCC2C3CC[C@@H]4C[C@H](O)CC[C@]4(C)C3CC[C@@]21C` (stereo partly shown) [Compound 20] the value was 6.8 ± 0.08 µM; for `CC(C)=CCC[C@@H](C)[C@H]1CCC2C3CC[C@@H]4C[C@H](O)CC[C@]4(C)C3CC[C@@]21C` (stereo partly shown) [Compound 21], 5.9 ± 0.055 µM; for `CC[C@@H](C)[C@H]1CCC2C3CC[C@@H]4C[C@H](O)CC[C@]4(C)C3CC[C@@]21C` (stereo partly shown) [Compound 24], 0.91 ± 0.092 µM. For `CC(C)=CCC[C@@H](C)[C@H]1CCC2C3CC[C@H]4C[C@@H](O)CC[C@]4(C)C3CC[C@@]21C` (stereo partly shown) [Compound 25], in series [2], the EC50 turned out to be 7.6 ± 0.71 µM. The same measure, in the same setting: the value for `C=CCC[C@@H](C)[C@H]1CCC2C3CC[C@H]4C[C@@H](O)CC[C@]4(C)C3CC[C@@]21C` (stereo partly shown) [Compound 27] was 1 ± 0.062 µM.

Regarding `C=C[C@@H](C)[C@H]1CCC2C3CC[C@H]4C[C@@H](O)CC[C@]4(C)C3CC[C@@]21C` (stereo partly shown) [Compound 29], the EC50 in series [2] was determined as 4.9 ± 0.06 µM.

As for `CC[C@@H](C)[C@H]1CCC2C3CC[C@H]4C[C@@H](O)CC[C@]4(C)C3CC[C@@]21C` (stereo partly shown) [Compound 30], in series [2], the EC50 turned out to be 1.98 ± 0.145 µM. Consider `C[C@H](CCC(=O)O)[C@H]1CC[C@H]2[C@@H]3C[C@H](O)[C@@H]4C[C@H](O)CC[C@]4(C)[C@H]3CC[C@]12C` [HDCA, hyodeoxycholic acid], for which the EC50 in series [7] is 31.6 µM.

A word on the EC50: it is the concentration giving half of the maximal effect.
